Assays:
VEGFR/KDR = biological target: T1, VEGFR/KDR (Homo sapiens, UniProt P35968); assay: VEGFR/KDR kinase inhibition, DELFIA assay; type: biochemical; details: ATP 0.6 uM (2x Km), enzyme 5 nM
T1 construct: made in house; host or cells: Sf9 cells (Spodoptera frugiperda), baculovirus
Summary of the method: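 DELFIA time-resolved fluorescence readout using Europium-tagged anti-phosphotyrosine antibody after EDTA stop. Kinase reaction on plate-bound poly(Glu4,Tyr) ran 10-30 min at 30° C with 5 nM enzyme and 0.6 uM ATP (2× Km), following 4 min on-ice pre-incubation with compound; IC50 over a concentration range.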

CNV progression = assay: In vivo choroidal neovascularization (CNV) model, laser-induced, intravitreal injection; design: species or system Male Brown-Norway rats; details: 240 h, rat; for inhibition in vivo at 10 nmol/eye: 10 nmol/eye injected on Day 3, CNV area on Day 10, vs vehicle; for inhibition in vivo at 3 nmol/eye: 3 nmol/eye injected on Day 3, CNV area on Day 10, vs vehicle
Description: This test measures the capacity of compounds to inhibit CNV progression. CNV is the main cause of severe vision loss in patients suffering from age-related macular degeneration (AMD).
Male Brown-Norway rats (Japan Clea Co., Ltd.) were used in these studies.
Rats were anesthetized by intraperitoneal injection of pentobarbital, and the right pupil was dilated with 0.5% tropicamide and 0.5% phenylephrine hydrochloride. The right eye received 6 laser burns between retinal vessels using a slit lamp delivery system of Green laser Photocoagulator (Nidex Inc., Japan), and microscope slide glass with Healon™ (AMO Inc) used as a contact lens. The laser power was 100 or 200 mW for 0.1 second and spot diameter was 100 μm. At the time of laser burn, bubble production was observed, which is an indication of rupture of Bruch's membrane which is important for CNV generation.
Rats were divided into the groups based on their body weight using SAS software (SAS institute Japan, R8.1) after laser irradiation (Day 0). After animals were anesthetized, and the right pupil dilated (as above mentioned), the right eye of the animal received the compound or vehicle by an injection (10 μL/eye) at doses of 10 or 3 nmol/eye on Day 3. The compounds were dissolved or suspended in CBS, PBS, or other adequate vehicles before injection.
On Day 10, the animals were anesthetized with ether, and high molecular weight fluorescein isothiocyanate (FITC)-dextran (SIGMA, 2×10^6 MW) was injected via a tail vein (20 mg/rat). About 30 min after FITC-dextran injection, animals were euthanized by ether or carbon dioxide, and the eyes were removed and fixed with 10% formaline neutral buffer solution. After over 1 hour of fixation, RPE-choroid-sclera flat mounts were obtained by removing cornea, lens and retina from the eyeballs. The flat mounts were mounted in 50% glycerol on a microscope slide, and the portion burned by laser was photographed using a fluorescence microscope (Nikon Corporation, excitation filter:465-495 nm, absorption filter:515-555 nm). The CNV area was obtained by measurement of hyper-fluorescence area observed on the photograph using Scion image.
The average CNV area of 6 burns was used as an individual value of CNV area, and the average CNV area of compound treated group was compared with that of the vehicle-treated group.

T1 sequence (P35968 806-1356): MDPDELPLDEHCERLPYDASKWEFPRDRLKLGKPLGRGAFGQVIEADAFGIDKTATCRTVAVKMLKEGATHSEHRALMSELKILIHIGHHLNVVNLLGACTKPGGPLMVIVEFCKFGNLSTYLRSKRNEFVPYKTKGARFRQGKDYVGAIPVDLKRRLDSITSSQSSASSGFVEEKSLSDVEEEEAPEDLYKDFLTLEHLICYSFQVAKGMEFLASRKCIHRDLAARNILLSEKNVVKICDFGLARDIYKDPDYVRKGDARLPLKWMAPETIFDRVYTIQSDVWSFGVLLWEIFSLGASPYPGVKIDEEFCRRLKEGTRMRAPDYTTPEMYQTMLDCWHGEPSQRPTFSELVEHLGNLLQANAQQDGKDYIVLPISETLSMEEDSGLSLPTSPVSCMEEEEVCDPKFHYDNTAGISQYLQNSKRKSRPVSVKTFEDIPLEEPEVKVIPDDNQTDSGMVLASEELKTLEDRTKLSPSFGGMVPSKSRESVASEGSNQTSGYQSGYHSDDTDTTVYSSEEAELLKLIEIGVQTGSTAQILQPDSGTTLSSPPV

Row | Structure (SMILES) | IC50 (VEGFR/KDR) | inhibition in vivo at 10 nmol/eye (CNV progression) | inhibition in vivo at 3 nmol/eye (CNV progression)
1 | COCCN(Cc1ccc(-c2cc3nccc(Oc4ccc(NC(=O)NC5CC5)cc4F)c3s2)nc1)C(=O)CS(C)(=O)=O [Compound 90, N-((6-(7-(4-(3-cyclopropylureido)-2-fluorophenoxy)thieno[3,2-b]pyridin-2-yl)pyridin-3-yl)methyl)-N-(2-methoxyethyl)-2-(methylsulfonyl)acetamide] | < 50 nM | ≥ 60% | 
2 | Cn1c(CN2CCCC2=O)cnc1-c1cc2nccc(Oc3ccc(NC(=O)NC4CC4)cc3F)c2s1 [Compound 137, 1-cyclopropyl-3-(3-fluoro-4-(2-(1-methyl-5-((2-oxopyrrolidin-1-yl)methyl)-1H-imidazol-2-yl)thieno[3,2-b]pyridin-7-yloxy)phenyl)urea] | < 50 nM | 40 to 60% | 
3 | O=C(Nc1ccc(Oc2ccnc3cc(-c4ccc(CN5CCCS5(=O)=O)cn4)sc23)c(F)c1)NC1CC1 [Compound 142, 1-cyclopropyl-3-(3-fluoro-4-(2-(5-(2,2-dioxo-2-thiapyrrolidin-1-ylmethyl)pyridin-2-yl)thieno[3,2-b]pyridin-7-yloxy)phenyl)urea] | < 50 nM | 40 to 60% | 
4 | CN1CCN(CCn2cc(-c3cc4nccc(Oc5ccc(NC(=O)NC6CC6)cc5F)c4s3)cn2)CC1 [Compound 154, 1-cyclopropyl-3-(3-fluoro-4-(2-(1-(2-(4-methylpiperazin-1-yl)ethyl)-1H-pyrazol-4-yl)thieno[3,2-b]pyridin-7-yloxy)phenyl)urea] | < 50 nM |  | 40 to 60%
5 | CC(C)N(CCN1CCN(C(=O)c2ccc(-c3cc4nccc(Oc5ccc(NC(=O)NC6CC6)cc5F)c4s3)nc2)CC1)C(C)C [Compound 230, 1-cyclopropyl-3-(4-(2-(5-(4-(2-(diisopropylamino)ethyl)piperazine-1-carbonyl)pyridin-2-yl)thieno[3,2-b]pyridin-7-yloxy)-3-fluorophenyl)urea] | < 50 nM |  | 40 to 60%
6 | CN1CCC(CN2CCN(C(=O)c3ccc(-c4cc5nccc(Oc6ccc(NC(=O)NC7CC7)cc6F)c5s4)nc3)CC2)CC1 [Compound 232, 1-cyclopropyl-3-(3-fluoro-4-(2-(5-(4-((1-methylpiperidin-4-yl)methyl)piperazine-1-carbonyl)pyridin-2-yl)thieno[3,2-b]pyridin-7-yloxyl)phenyl)urea] | < 50 nM |  | 40 to 60%
7 | COCCNCCc1ccc(-c2cc3nccc(Oc4ccc(NC(=O)NC5CC5)cc4F)c3s2)nc1 [Compound 288, 1-cyclopropyl-3-(3-fluoro-4-(2-(5-(2-(2-methoxyethylamino)ethyl)pyridin-2-yl)thieno[3,2-b]pyridin-7-yloxy)phenyl)urea] | < 50 nM | 40 to 60% | 
